The values below are quoted from earlier work in patent US9006451B1, “2-anilinonicotinyl based chalcones useful as potential anticancer agents and process for preparation thereof” (Council of Scientific and Industrial Research, priority 2013, dated 2015).

In the series the test system is breast cancer cell line MCF7. As to conditions: cited from earlier work.

For `COc1ccc(C(=O)/C=C/c2c(OC)cccc2OC)c(OC)c1` [B, (E)-1-(2,4-dimethoxyphenyl)-3-(2,6-dimethoxyphenyl)prop-2-en-1-one], the IC50 (J. Med. Chem. 2008, 51, 2307-2310, read-out: IC50 against breast cancer cell line MCF7) was 75 µM. The GI50 (known chalcone, literature value) was 75 µM.

For orientation: IC50 means the concentration needed to halve the response being measured. What is called GI50 is the concentration giving 50% growth inhibition.
